Data published in article PMC8474115 (Journal of Medicinal Chemistry, 2021).
Where a name gives a salt, the structure may show the parent alone. Read-outs that look alike come from different tables or passages of the source.

Columns and labels:
5-HT3R = molecular target: T1, 5-HT3R (Cavia porcellus, UniProt O70212); conditions: for functional classification at 5-HT3R: guinea pig ileum contraction; for antagonist effect: percent inhibition of response to 5-HT 3 μM (contraction of guinea pig ileum)
T1 sequence (O70212 20-490): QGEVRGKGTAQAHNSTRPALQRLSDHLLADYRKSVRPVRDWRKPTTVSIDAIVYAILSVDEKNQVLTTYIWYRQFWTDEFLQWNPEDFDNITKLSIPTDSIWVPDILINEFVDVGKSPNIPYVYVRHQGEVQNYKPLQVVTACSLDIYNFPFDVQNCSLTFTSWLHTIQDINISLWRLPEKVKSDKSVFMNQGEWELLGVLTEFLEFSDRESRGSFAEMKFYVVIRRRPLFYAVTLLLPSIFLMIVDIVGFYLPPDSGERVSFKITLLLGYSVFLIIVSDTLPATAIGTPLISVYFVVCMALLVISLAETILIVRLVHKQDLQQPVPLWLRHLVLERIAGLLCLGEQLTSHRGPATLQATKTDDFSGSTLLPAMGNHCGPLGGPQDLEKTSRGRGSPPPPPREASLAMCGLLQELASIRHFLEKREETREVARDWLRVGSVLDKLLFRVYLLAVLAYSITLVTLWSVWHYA
Procedure: Isolated guinea pig ileum was employed to test the affinity and the intrinsic activity of the investigated compounds for 5-HT3 receptors. […] A 15 cm ileum segment was excised from the small intestine of male guinea pigs and immersed into a Krebs solution (NaCl 120 mM, KCl 5.6 mM, MgCl2 2.2 mM, CaCl2 2.4 mM, NaHCO3 19 mM, glucose 10 mM). After the first 5 cm length closest to the ileocaecal junction had been discarded 2 cm-long fragments were cut. Each segment of the ileum was placed in a 20 mL chamber of tissue organ bath system (Tissue Organ Bath System – 750 TOBS, DMT, Denmark) filled with the Krebs solution at 37° C, pH 7.4, with constant oxygenation (O2/CO2, 19:1), fixed by the lower end to a rod and by the upper end to the force–displacement transducer. The preparation was allowed to stabilize in organ baths for 60 min under a resting tension of 0.5 g, washing every 15 min with fresh Krebs solution. After the equilibration period, a cumulative concentration–response curve was constructed in each tissue for 5-HT (10 nM – 10 μM) by the method of van Rossum.[64] […] Selected compounds were tested using an additional method. After establishment of the first 5-HT concentration–response curve, washing out of the tissue, and stabilization period, the same tissues were subsequently incubated with one of the concentrations of the tested compound for 15 min and the next cumulative concentration curve to 5-HT was obtained. Only one concentration of a studied compound was tested in each piece of tissue.

h5-HT6R [1] = molecular target: T2, h5-HT6R (Homo sapiens, UniProt P50406); experiment: Inhibition of 5-CT-induced cAMP production in 1321N1 cells expressing h5-HT6R; type: cell-based; design: host or cells: 1321N1; conditions: for Kb: cAMP; for antagonist effect: 10^–6 M, percent inhibition of control agonist response
T2 sequence (P50406 whole entry): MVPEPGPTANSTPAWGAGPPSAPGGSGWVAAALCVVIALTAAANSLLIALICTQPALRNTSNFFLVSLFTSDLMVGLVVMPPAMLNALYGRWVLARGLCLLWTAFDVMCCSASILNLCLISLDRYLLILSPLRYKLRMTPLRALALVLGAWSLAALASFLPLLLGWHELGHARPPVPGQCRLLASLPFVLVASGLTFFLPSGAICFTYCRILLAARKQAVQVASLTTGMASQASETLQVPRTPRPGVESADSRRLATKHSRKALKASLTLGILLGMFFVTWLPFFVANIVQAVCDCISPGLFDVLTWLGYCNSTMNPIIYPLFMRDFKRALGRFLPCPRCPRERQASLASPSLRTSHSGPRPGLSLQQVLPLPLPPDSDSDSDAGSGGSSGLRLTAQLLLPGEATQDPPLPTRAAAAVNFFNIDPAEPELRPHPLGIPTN

h5-HT6R [2] = molecular target: T2, h5-HT6R
Procedure: (§1) For membrane preparation, cells after reaching 90% confluence, were washed with phosphate-buffered saline (PBS), and pelleted by centrifugation (200 × g) in PBS containing 0.1 mM EDTA and 1 mM dithiothreitol.
(§2) The total reaction volume was 200 μL. The incubation process was terminated by filtration through UniFilter-96 (PerkinElmer) plates with the FilterMate Universal Harvester (PerkinElmer, #C961962), and radioactivity retained on the filters was quantified on a MicroBeta counter for radiometric detection (PerkinElmer). […] To evaluate the level of nonspecific signal 10 μM of 5-HT for 5-HT1AR and 5-HT7R, 20 μM of mianserin for 5-HT2AR, 10 μM of methiothepine for 5-HT6R and 10 μM of haloperidol for D2LR were used. […] The acquired results were presented as the mean of at least two independent experiments.

hD2L = hD2L (Homo sapiens, UniProt P14416); conditions: D2R
hD2L, sequence (P14416 whole entry): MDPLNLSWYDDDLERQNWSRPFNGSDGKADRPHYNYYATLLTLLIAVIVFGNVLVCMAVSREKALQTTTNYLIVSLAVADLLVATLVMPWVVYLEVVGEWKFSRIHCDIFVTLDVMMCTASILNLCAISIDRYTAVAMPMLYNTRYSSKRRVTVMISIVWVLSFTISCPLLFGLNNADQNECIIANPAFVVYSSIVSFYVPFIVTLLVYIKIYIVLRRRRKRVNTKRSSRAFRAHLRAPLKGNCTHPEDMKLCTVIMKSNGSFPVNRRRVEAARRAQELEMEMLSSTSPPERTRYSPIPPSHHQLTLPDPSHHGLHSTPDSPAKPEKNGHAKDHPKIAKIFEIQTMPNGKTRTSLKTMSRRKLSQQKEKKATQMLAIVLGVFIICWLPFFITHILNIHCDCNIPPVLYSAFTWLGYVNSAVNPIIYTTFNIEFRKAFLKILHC
Procedure: as §1, §2

h5-HT7b = h5-HT7b (Homo sapiens, UniProt P34969); conditions: 5-HT7R
h5-HT7b, sequence (P34969 1-432 limits assumed): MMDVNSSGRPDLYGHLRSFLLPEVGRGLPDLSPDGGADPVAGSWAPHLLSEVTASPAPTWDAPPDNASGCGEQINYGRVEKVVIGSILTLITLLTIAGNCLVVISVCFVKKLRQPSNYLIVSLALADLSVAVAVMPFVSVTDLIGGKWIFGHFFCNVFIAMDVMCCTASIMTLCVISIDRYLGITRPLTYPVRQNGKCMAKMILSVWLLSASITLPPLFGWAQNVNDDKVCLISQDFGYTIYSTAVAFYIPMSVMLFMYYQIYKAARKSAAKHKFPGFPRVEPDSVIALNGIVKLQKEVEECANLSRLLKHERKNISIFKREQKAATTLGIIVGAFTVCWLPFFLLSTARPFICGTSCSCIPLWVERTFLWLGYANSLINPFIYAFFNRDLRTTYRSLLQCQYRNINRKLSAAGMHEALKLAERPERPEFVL
Procedure: as §1, §2

h5-HT1A = h5-HT1A (Homo sapiens, UniProt P08908); conditions: 5-HT1AR
h5-HT1A, sequence (P08908 whole entry): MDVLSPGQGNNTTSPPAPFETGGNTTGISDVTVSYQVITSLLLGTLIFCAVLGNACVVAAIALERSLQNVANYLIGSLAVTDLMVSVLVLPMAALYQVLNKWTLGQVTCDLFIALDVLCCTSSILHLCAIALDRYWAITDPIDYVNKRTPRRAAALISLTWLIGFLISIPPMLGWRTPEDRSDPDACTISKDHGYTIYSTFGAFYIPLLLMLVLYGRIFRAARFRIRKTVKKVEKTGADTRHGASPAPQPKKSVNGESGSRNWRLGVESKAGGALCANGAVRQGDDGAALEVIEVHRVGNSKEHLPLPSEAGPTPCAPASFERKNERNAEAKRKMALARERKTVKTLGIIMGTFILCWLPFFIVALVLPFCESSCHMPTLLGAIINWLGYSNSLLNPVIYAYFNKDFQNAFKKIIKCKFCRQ
Procedure: as §1, §2

h5-HT2AR = h5-HT2AR (Homo sapiens, UniProt P28223); conditions: 5-HT2AR
h5-HT2AR, sequence (P28223 whole entry, looked up): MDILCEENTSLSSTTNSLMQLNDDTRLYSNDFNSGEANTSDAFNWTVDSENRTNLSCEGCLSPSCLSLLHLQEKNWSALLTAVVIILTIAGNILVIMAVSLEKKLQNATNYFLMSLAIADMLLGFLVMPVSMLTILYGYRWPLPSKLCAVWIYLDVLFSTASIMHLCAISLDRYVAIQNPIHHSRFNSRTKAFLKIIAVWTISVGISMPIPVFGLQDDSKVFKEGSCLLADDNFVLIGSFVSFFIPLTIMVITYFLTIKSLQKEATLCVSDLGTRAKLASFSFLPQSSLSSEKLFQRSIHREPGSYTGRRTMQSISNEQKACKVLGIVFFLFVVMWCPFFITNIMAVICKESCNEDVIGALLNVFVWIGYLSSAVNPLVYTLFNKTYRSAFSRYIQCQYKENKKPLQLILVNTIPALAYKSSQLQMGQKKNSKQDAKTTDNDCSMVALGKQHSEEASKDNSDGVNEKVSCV
Procedure: as §1, §2

male Sprague–Dawley rats [3] = conditions: AUC −25 to 0 min before PCP
Procedure: (§3) Both spontaneous and PCP-induced locomotor activity were measured automatically in Opto-Varimex-4 Auto-Tracks (Columbus Instruments, Ohio) located in sound-attenuated and ventilated boxes. The Auto-Track System sensed the motion with a grid of infrared photocells (16 beams per axis) surrounding the arena.
(§4) Following 30 min of spontaneous activity measurement, the animals were removed from the boxes, injected with phencyclidine hydrochloride (PCP) at a dose of 5 mg/kg (SC), and then PCP-induced locomotor activity was measured for 120 min.
(§5) The measurements (30 min) preceding PCP administration indicate drug-induced effects on spontaneous locomotor activity. The second period (measured in the same animals at 0-120 min following PCP administration) indicates drug-induced alteration of PCP-induced hyperactivity.
(§6) Mixed-design two-way ANOVA with treatment(s) as between-subject factor and time as repeated measures factor on raw distance data, and separate one-way or two-way ANOVAs (on AUC data) followed by Dunnett’s multiple comparison, LSD or Tukey’s post hoc tests as well as analyses of contrast coefficients (Statistica 12 for Windows, IBM SPSS ver 26 for Mac) were used to assess the effects of compounds on activity.

male Sprague–Dawley rats [4] = system: male Sprague–Dawley rats
Procedure: as §3, §4, §5, §6

h5-HT3R = h5-HT3R (Homo sapiens, UniProt P46098); conditions: inhibition of inward currents in response to 5-HT (EC80)
h5-HT3R, sequence (P46098 24-478): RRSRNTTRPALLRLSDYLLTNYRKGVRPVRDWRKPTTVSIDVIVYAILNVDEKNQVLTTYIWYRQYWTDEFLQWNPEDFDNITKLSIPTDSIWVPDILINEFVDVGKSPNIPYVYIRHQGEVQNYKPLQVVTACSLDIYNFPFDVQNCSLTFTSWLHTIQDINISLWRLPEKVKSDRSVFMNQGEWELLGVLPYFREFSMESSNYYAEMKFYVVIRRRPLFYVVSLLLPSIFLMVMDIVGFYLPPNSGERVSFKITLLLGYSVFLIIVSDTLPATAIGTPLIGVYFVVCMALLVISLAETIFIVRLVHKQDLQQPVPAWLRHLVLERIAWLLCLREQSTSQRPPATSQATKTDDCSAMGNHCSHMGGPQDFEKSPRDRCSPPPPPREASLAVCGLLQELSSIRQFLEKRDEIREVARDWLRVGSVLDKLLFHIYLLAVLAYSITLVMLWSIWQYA
Procedure: All recordings were obtained from a holding potential of -60 mV. To establish the baseline response, serotonin was added at the concentration corresponding to its EC80 value. Subsequently, the test compound was characterized in a dose–response protocol at the concentration ranges from 10^–6 to 10^–11 M, with 30 s preincubation, followed by the addition of 5-HT at its EC80 in the presence of the compound for 2 s.
Peak inward currents were measured in response to the serotonin additions in the presence of a single concentration of the compound. Obtained data have been normalized to the baseline peak current induced by the addition of EC80 serotonin for 2 s, according to eq 1 [drawing 4] 1 Received data were analyzed using a four-parameter logistic equation in GraphPad Prism software.

[5] = HEK cells stably expressing h5-HT6R

CN1CCN(c2nc3ccccc3c3[nH]ccc23)CC1 [Compound 5d, 4-(4-Methylpiperazin-1-yl)-1H-pyrrolo[3,2-c]quinoline]
functional classification at 5-HT3R (5-HT3R): agonist | Kb (h5-HT6R [1]; Kb): > 10 µM | Ki (h5-HT6R [2]): 0.245 µM

c1ccc2c(c1)nc(N1CCNCC1)c1cc[nH]c12 [Compound 5e, 4-(Piperazin-1-yl)-1H-pyrrolo[3,2-c]quinoline]
functional classification at 5-HT3R (5-HT3R): partial agonist | Kb (h5-HT6R [1]; Kb): > 10 µM | Ki (h5-HT6R [2]): 0.757 µM

O=S(=O)(c1cccc(Cl)c1)n1ccc2c(N3CCNCC3)nc3ccccc3c21 [Compound 18, 1-[(3-Chlorophenyl)sulfonyl]-4-(piperazin-1-yl)-1H-pyrrolo[3,2-c]quinoline dihydrochloride]
antagonist effect (5-HT3R; 100 nM): 11% | antagonist effect (5-HT3R; 300 nM): 72% | Ki (hD2L): 1.34 µM | Ki (h5-HT7b): 1.79 µM | Ki (h5-HT1A): 0.773 µM | Ki (h5-HT2AR): 1.67 µM

Cc1cccc(S(=O)(=O)n2ccc3c(N4CCNCC4)nc4ccccc4c32)c1 [Compound 20, 1-[(3-Methylphenyl)sulfonyl]-4-(piperazin-1-yl)-1H-pyrrolo[3,2-c]quinoline dihydrochloride]
antagonist effect (5-HT3R; 30 nM): 20% | antagonist effect (5-HT3R; 100 nM): 40% | Ki (hD2L): 2.16 µM | Ki (h5-HT7b): 4.14 µM | Ki (h5-HT1A): 0.76 µM | Ki (h5-HT2AR): 4.63 µM

O=S(=O)(c1ccc(F)cc1)n1ccc2c(N3CCNCC3)nc3ccccc3c21 [Compound 22, 1-[(4-Fluorophenyl)sulfonyl]-4-(piperazin-1-yl)-1H-pyrrolo[3,2-c]quinoline dihydrochloride]
antagonist effect (5-HT3R; 300 nM): 48 (300 nM) % | antagonist effect (h5-HT6R [1]): 72% | Ki (h5-HT6R [2]; [5]): 0.018 µM

O=S(=O)(c1ccc(C(F)(F)F)cc1)n1ccc2c(N3CCNCC3)nc3ccccc3c21 [Compound 23, 1-{[4-(Trifluoromethyl)phenyl]sulfonyl}-4-(piperazin-1-yl)-1H-pyrrolo[3,2-c]quinoline dihydrochloride]
antagonist effect (h5-HT6R [1]): 63% | Ki (h5-HT6R [2]; [5]): 0.034 µM

CC(C)c1ccc(S(=O)(=O)n2ccc3c(N4CCNCC4)nc4ccccc4c32)cc1 [Compound 24, 1-[(4-iso-Propylphenyl)sulfonyl]-4-(piperazin-1-yl)-1H-pyrrolo[3,2-c]quinoline dihydrochloride]
antagonist effect (5-HT3R; 300 nM): 38 (300 nM) % | antagonist effect (h5-HT6R [1]): 65% | Ki (h5-HT6R [2]; [5]): 0.014 µM

O=S(=O)(c1ccccc1)n1ccc2c(N3CCNCC3)nccc21 [II, reference compound]
Kb (h5-HT6R [1]; Kb): 0.001 µM | Ki (h5-HT6R [2]): 0.006 µM

COc1ccc(S(=O)(=O)Nc2cc(Cl)cc(Cl)c2OC)cc1N1CCNCC1 [SB399885]
effect on spontaneous activity (male Sprague–Dawley rats [3]; SB399885 1 mg/kg IP): neither compound affected spontaneous activity | effect on spontaneous activity (male Sprague–Dawley rats [3]; SB399885 9 mg/kg IP): sedative-like action | effect on PCP-induced hyperactivity (male Sprague–Dawley rats [4]; SB399885 1 mg/kg IP, AUC post-PCP vs vehicle): enhances PCP-induced hyperactivity compared with vehicle | effect on PCP-induced hyperactivity (male Sprague–Dawley rats [4]; SB399885 alone IP, doses up to 9 mg/kg, AUC 1st and 2nd hour post-PCP): did not affect PCP-induced hyperactivity

Cc1nccn1CC1CCc2c(c3ccccc3n2C)C1=O (stereo not drawn) [ondansetron, reference compound]
pA2 (5-HT3R; antagonist potency, Schild analysis, guinea pig ileum): pA2 = 7.11 ± 0.12 | Kb (h5-HT6R [1]; read-out: Kb): 58.2 µM | effect on spontaneous activity (male Sprague–Dawley rats [3]; ondansetron 0.5 mg/kg IP): neither compound affected spontaneous activity

O=C1c2cccc3c2[C@H](CCC3)CN1[C@@H]1CN2CCC1CC2 [palonosetron]
IC50 (h5-HT3R): 0.0017 µM
